Reference: patent US11097023B1, “Pre-filled syringe containing sugammadex” (Par Pharmaceutical, Inc., priority 2020, dated 2021)

Experiments:
[1] = Oxidative-forced degradation of sugammadex sodium (Example VI); type: physicochemical
Protocol: To confirm that impurities observed in sugammadex sodium-containing solutions could be at least in part a result of oxidative degradation, sugammadex sodium as a solution in […] was subjected to an atmosphere of either 0.01% H2O2 for one hour or to an atmosphere of 0.002% H2O2 for five hours. S-oxide diastereomer-1 impurity, s-oxide diastereomer-2 impurity, impurity at ˜1.12 RRT, mono chloro impurity, unknown impurities, and mono hydroxyl impurity concentrations were measured using HPLC technique as described in Example VII after the first hour of 0.01% H2O2 exposure and after the first, fourth, and fifth hour of 0.002% H2O2 exposure.
(§1) For the following procedure, amber-colored glassware was used for all preparations. In addition, because sugammadex sodium is markedly hygroscopic when exposed to air at room temperature and when exposed to humidity, a relative humidity of less than 40% RH was maintained during weighing.
(§2) First, a buffer solution having a pH of 2.0 was prepared by weighing and transferring about 4.08 g of potassium dihydrogen phosphate (AR grade of equivalent) into 1000 mL water (HPLC Grade or Milli-Q) and mixing. The pH of the buffer solution was adjusted to 2.0±0.05 with concentrated ortho-phosphoric acid (HPLC grade or equivalent) and mixed well.
(§3) A mobile phase A was then prepared by transferring 950 mL of the buffer solution and 50 mL of methanol (HPLC grade or equivalent) into a bottle, mixing, and sonicating to degas. A mobile phase B was also prepared by transferring 300 mL of the buffer solution and 700 mL of acetonitrile (HPLC grade or equivalent) into a bottle, mixing, and sonicating to degas.
(§4) A standard solution (50 ppm) was also prepared by weighing and transferring 27.2 mg of sugammadex sodium standard into a 50 mL amber color volumetric flask. About 30 mL of 100% water (HPLC Grade or Milli-Q) was added, and the mixture was sonicated to dissolve. The solution was made up to the mark with 100% water (HPLC Grade or Milli-Q) and mixed well. Then, 5.0 mL of this solution was transferred to 50 mL amber color volumetric flasks, made up to the mark with 100% water (HPLC Grade or Milli-Q), and mixed well.
(§5) To prepare a sensitivity solution (5 ppm), 5.0 mL of the standard solution was transferred to a 50 mL amber volumetric flask, made-up to the mark with 100% water (HPLC Grade or Milli-Q), and mixed well.
(§6) A placebo solution was also prepared by weighing and transferring 1.0 g of placebo into a 20 mL amber color volumetric flask, diluting to 20 mL with 100% water (HPLC Grade or Milli-Q), and mixing well.
(§7) A sample solution (5000 ppm) was also prepared by weighing and transferring 1.0 g of the sample to be analyzed into a 20 mL amber color volumetric flask, diluting to 20 mL with 100% water (HPLC Grade or Milli-Q), and mixing well.
(§8) When performing the chromatographic procedure, for initial samples, two samples were prepared in duplicate. For stability samples, a single sample was prepared. In addition, any peak due to blank and/or placebo was disregarded, any peak below LOQ level was disregarded, and any peak corresponding to mono chloro impurity was disregarded.
(§9) The percent impurity was then calculated as follows:
(§10) [formula] where: A(Spl)=Peak response of impurity obtained from sample solution A(Std)=Average peak response of sugammadex from the standard solution Wt(Std)=Weight (mg) of sugammadex working standard. Wt(Spl)=Weight (g) of Sample LC=Label Claim (100 mg/ml sugammadex) D=Density of sample (mg/ml) P=Potency of the standard (Anhydrous basis+Solvent free) WC=Water content of sugammadex working standard. 2002.12=Molecular weight of sugammadex 2178.01=Molecular weight of sugammadex sodium
(§11) Total impurities were calculated by adding all known impurities (excluding mono hydroxy impurity) and all unknown impurities.

[2] = Thermal-forced degradation of sugammadex sodium (Example V); type: physicochemical; details: solution in WFI, 60° C.
Protocol: To confirm that the impurities observed in Example III were at least in part a result of thermal degradation, sugammadex sodium as a solution in WFI was subjected to an elevated temperature of 60° C. for ten days. S-oxide diastereomer-1 impurity, s-oxide diastereomer-2 impurity, impurity at ˜1.12 RRT, mono chloro impurity, unknown impurities, and mono hydroxyl impurity concentrations were measured using HPLC technique as described in Example VII after the first, third, fifth, and tenth day.
as §1, §2, §3, §4, §5, §6, §7, §8, §9, §10, §11

(Excluding Monohydroxy impurity) ([1]; 0.002% H2O2, after fifth hour): 0.03 % impurity | Highest Unknown impurity ([1]; 0.002% H2O2, after fifth hour): 0.07 % impurity | Impurity at ~1.12 RRT ([1]; 0.002% H2O2, after fifth hour): 0.09 % impurity | Mono chloro impurity ([1]; 0.002% H2O2, after fifth hour): 0.03 % impurity | Other total impurities ([1]; 0.002% H2O2, after fifth hour): 0.82 % impurity | S-oxide diastereomer-1 impurity ([1]; 0.002% H2O2, after fifth hour): 4.11 % impurity | S-oxide diastereomer-2 impurity ([1]; 0.002% H2O2, after fifth hour): 5.02 % impurity | Total impurities ([1]; 0.002% H2O2, after fifth hour): 10.14 % impurity | (Excluding Monohydroxy impurity) ([1]; 0.002% H2O2, after first hour): 0.03 % impurity | Highest Unknown impurity ([1]; 0.002% H2O2, after first hour): 0.07 % impurity | Impurity at ~1.12 RRT ([1]; 0.002% H2O2, after first hour): 0.10 % impurity | Mono chloro impurity ([1]; 0.002% H2O2, after first hour): 0.04 % impurity | Other total impurities ([1]; 0.002% H2O2, after first hour): 0.31 % impurity | S-oxide diastereomer-1 impurity ([1]; 0.002% H2O2, after first hour): 1.20 % impurity | S-oxide diastereomer-2 impurity ([1]; 0.002% H2O2, after first hour): 1.47 % impurity | Total impurities ([1]; 0.002% H2O2, after first hour): 3.20 % impurity | (Excluding Monohydroxy impurity) ([1]; 0.002% H2O2, after fourth hour): 0.02 % impurity | Highest Unknown impurity ([1]; 0.002% H2O2, after fourth hour): 0.07 % impurity | Impurity at ~1.12 RRT ([1]; 0.002% H2O2, after fourth hour): 0.09 % impurity | Mono chloro impurity ([1]; 0.002% H2O2, after fourth hour): 0.03 % impurity | Other total impurities ([1]; 0.002% H2O2, after fourth hour): 0.65 % impurity | S-oxide diastereomer-1 impurity ([1]; 0.002% H2O2, after fourth hour): 3.42 % impurity | S-oxide diastereomer-2 impurity ([1]; 0.002% H2O2, after fourth hour): 4.18 % impurity | Total impurities ([1]; 0.002% H2O2, after fourth hour): 8.45 % impurity | (Excluding Monohydroxy impurity) ([1]; 0.01% H2O2, after first hour): 0.02 % impurity | Highest Unknown impurity ([1]; 0.01% H2O2, after first hour): 3.07 % impurity | Impurity at ~1.12 RRT ([1]; 0.01% H2O2, after first hour): 0.08 % impurity | Mono chloro impurity ([1]; 0.01% H2O2, after first hour): 0.03 % impurity | Other total impurities ([1]; 0.01% H2O2, after first hour): 3.66 % impurity | S-oxide diastereomer-1 impurity ([1]; 0.01% H2O2, after first hour): 10.64 % impurity | S-oxide diastereomer-2 impurity ([1]; 0.01% H2O2, after first hour): 12.89 % impurity | Total impurities ([1]; 0.01% H2O2, after first hour): 30.36 % impurity | (Excluding Monohydroxy impurity) ([2]; after fifth day): 0.03 % impurity | Highest Unknown impurity ([2]; after fifth day): 7.18 % impurity | Impurity at ~1.12 RRT ([2]; after fifth day): 0.10 % impurity | Mono chloro impurity ([2]; after fifth day): 0.03 % impurity | Other total impurities ([2]; after fifth day): 0.80 % impurity | S-oxide diastereomer-1 impurity ([2]; after fifth day): 0.16 % impurity | S-oxide diastereomer-2 impurity ([2]; after fifth day): 0.21 % impurity | Total impurities ([2]; after fifth day): 8.48 % impurity | (Excluding Monohydroxy impurity) ([2]; after first day): 0.03 % impurity | Highest Unknown impurity ([2]; after first day): 4.44 % impurity | Impurity at ~1.12 RRT ([2]; after first day): 0.10 % impurity | Mono chloro impurity ([2]; after first day): 0.04 % impurity | Other total impurities ([2]; after first day): 0.71 % impurity | S-oxide diastereomer-1 impurity ([2]; after first day): 0.12 % impurity | S-oxide diastereomer-2 impurity ([2]; after first day): 0.17 % impurity | Total impurities ([2]; after first day): 5.58 % impurity | (Excluding Monohydroxy impurity) ([2]; after tenth day): 0.02 % impurity | Highest Unknown impurity ([2]; after tenth day): 15.04 % impurity | Impurity at ~1.12 RRT ([2]; after tenth day): 0.08 % impurity | Mono chloro impurity ([2]; after tenth day): 0.03 % impurity | Other total impurities ([2]; after tenth day): 0.85 % impurity | S-oxide diastereomer-1 impurity ([2]; after tenth day): 0.48 % impurity | S-oxide diastereomer-2 impurity ([2]; after tenth day): 0.42 % impurity | Total impurities ([2]; after tenth day): 16.91 % impurity | (Excluding Monohydroxy impurity) ([2]; after third day): 0.03 % impurity | Highest Unknown impurity ([2]; after third day): 5.34 % impurity | Impurity at ~1.12 RRT ([2]; after third day): 0.10 % impurity | Mono chloro impurity ([2]; after third day): 0.03 % impurity | Other total impurities ([2]; after third day): 0.79 % impurity | S-oxide diastereomer-1 impurity ([2]; after third day): 0.14 % impurity | S-oxide diastereomer-2 impurity ([2]; after third day): 0.20 % impurity | Total impurities ([2]; after third day): 6.59 % impurity
SMILES: O=C([O-])CCSC[C@H]1O[C@@H]2O[C@H]3[C@H](O)[C@@H](O)[C@@H](O[C@H]4[C@H](O)[C@@H](O)[C@@H](O[C@H]5[C@H](O)[C@@H](O)[C@@H](O[C@H]6[C@H](O)[C@@H](O)[C@@H](O[C@H]7[C@H](O)[C@@H](O)[C@@H](O[C@H]8[C@H](O)[C@@H](O)[C@@H](O[C@H]9[C@H](O)C(O)[C@@H](O[C@H]1[C@H](O)[C@H]2O)O[C@@H]9CSCCC(=O)[O-])O[C@@H]8CSCCC(=O)[O-])O[C@@H]7CSCCC(=O)[O-])O[C@@H]6CSCCC(=O)[O-])O[C@@H]5CSCCC(=O)[O-])O[C@@H]4CSCCC(=O)[O-])O[C@@H]3CSCCC(=O)[O-].[Na+].[Na+].[Na+].[Na+].[Na+].[Na+].[Na+].[Na+] (stereo partly drawn) [sugammadex sodium]
Impurities generated via oxidation ([1]; 0.01% H2O2 one hour or 0.002% H2O2 five hours): at least s-oxide diastereomer-1 impurity, s-oxide diastereomer-2 impurity, and unknown impurities are generated via oxidation | Impurities generated via thermal degradation ([2]; ten days): at least s-oxide diastereomer-1 impurity, s-oxide diastereomer-2 impurity, and unknown impurities are generated via thermal degradation
